Experimental data as given in article PMC7305224, “Mutually stabilizing interactions between proto-peptides and RNA” (Nature Communications, 2020).

Key:
[1] = system: single-stranded 10mer RNA (5′-rCrGrArUrUrUrArGrCrG-3′); assay: Depsipeptide hydrolysis assay with single-stranded RNA; assay type: physicochemical; conditions: 25 μM depsipeptide, single-stranded 10mer RNA 100 µM, 37 °C, pH 7.3 buffer, HPLC
Description: To determine the extent of depsipeptide hydrolysis, the depsipeptide (25 μM) was incubated at 37 °C in buffer (100 mM HEPES, 10 mM NaCl, pH 7.3) in the presence or absence of 10mer RNA duplex 1 (5′-rCrGrArUrUrUrArGrCrG-3′ and 3′-rGrCrUrArArArUrCrGrC-5′) at various concentrations, or with single-stranded RNA (5′-rCrGrArUrUrUrArGrCrG-3′, 100 μM), for up to 100 h. Prior to adding depsipeptide to the reaction from its stock solution, the RNA was annealed by heating to 75 °C for 5 min, and then slowly cooling to room temperature. Reaction aliquots were quenched using 3% TFA and frozen or immediately analyzed by HPLC (270 nm). The relative concentrations of intact and hydrolyzed depsipeptide were quantified by integrating the corresponding peaks in HPLC traces. The kinetic profiles of depsipeptide hydrolysis were fit using SimFit-32 (provided by G. von Kiedrowski) according to the reaction scheme shown in Fig. 5a.

[2] = system: RNA duplex 1 (5′-rCrGrCrUrArArArUrCrG-3′ & 5′-rCrGrArUrUrUrArGrCrG-3′); assay: RNA thermal denaturation (Tm) by UV hyperchromicity at 260 nm with synthetic peptides/depsipeptides, RNA duplex 1; assay type: binding; conditions: 100 mM NaCl
Description: Each sample contained RNA duplex 1 (5′-rCrGrCrUrArArArUrCrG-3′ and 5′-rCrGrArUrUrUrArGrCrG-3′, 2.5 μM strand) and peptide/depsipeptide (100 μM) in buffered solution (10 mM phosphate, 100 mM NaCl, pH 7.0 or 10 mM acetate, 100 mM NaCl, pH 5.0). a Structures of depsipeptides used to systematically characterize cationic side chain effects on RNA duplex stability. Lactic acid residues are highlighted. Ac acetyl, Aba acetamidobenzoic acid, which was appended to the N-terminus to increase UV absorbance. b Structures of the Fmoc-didepsipeptide building blocks used for solid-phase synthesis of depsipeptide sequences. Fmoc fluorenylmethoxycarbonyl. c Comparative effects of oligo-didepsipeptide sequences 2–6 and analogous oligo-dipeptide and on the Tm of the RNA duplex (number of independent measurements: n = 3 for Arg and Lys sequences; n = 2 for His and Dab sequences; n = 4 for Orn sequences). The shaded areas correspond to the mean ± SD Tm measured for the RNA duplex alone (n = 16 independent measurements). Data are shown as a scatter plot with mean ± SD. d Comparative effects on RNA duplex Tm of depsipeptide sequences containing a single backbone ester (number of independent measurements: n = 3 for Arg; n = 2 for His, Orn, and Dab; n = 4 for Lys), relative to RNA duplex alone (n = 16 independent measurements). Data are shown as a scatter plot with mean ± SD. e To assess the impact of different cationic side chains on depsipeptide degradation rates, depsipeptides 7–11 (40 μM) were incubated at 37 °C in buffer (100 mM HEPES, 10 mM NaCl, pH 7.3). After 5 min, the reactions were quenched by the addition of 3% TFA, and samples were analyzed by HPLC.
Prior to Tm analyses, RNA samples were annealed in the appropriate buffer by heating to 75 °C and slowly cooling to room temperature. Depsipeptide/peptide was added to the annealed RNA and incubated at 4 °C for 20 min prior to carrying out the analysis. For analyses involving dry-down reaction mixtures, the Tm was determined by monitoring fluorescence increase upon melting of a fluorophore/quencher-labeled RNA duplex (5′-rCrGrArUrUrUrArGrCrG-/3IABkFQ/-3′ and 3′-rGrCrUrArArArUrCrGrC-FAM-5′) using a BioRad CFX Connect rtPCR instrument with a heating ramp of 1 °C/min and 20 μL final sample volumes. For analyses involving pure, synthetic compounds, the Tm of the RNA was determined by monitoring UV hyperchromicity at 260 nm using a Varian Cary Bio-100 spectrophotometer, with a heating ramp of 1 °C/min and 0.5- or 1-cm pathlength cells. The following RNA sequences were used: RNA duplex 1 = 5′-rCrGrCrUrArArArUrCrG-3′ and 5′-rCrGrArUrUrUrArGrCrG-3′; RNA duplex 2 = 5′-rArArArArUrUrUrArUrArUrUrArUrUrA-3′ and 5′-rUrArArUrArArUrArUrArArArUrUrUrU-3′; RNA duplex 3 = 5′-rArArCrGrUrArUrArCrGrUrU-3′ (palindromic); and H26a RNA = 5′-rArUrGrArGrUrArArCrCrGrUrArArGrGrUrGrArArArUrU-3′. RNA was present in each assay at a final concentration of 2.5 μM of the folded structure (2.5 μM each strand for duplex 1 and duplex 2, 5.0 μM palindromic strand for duplex 3, 2.5 μM strand for H26a RNA). Tm values were determined by nonlinear fitting of the melting curves using GraphPad Prism 8.2.1 for duplex 1 and H26a, or by finding the maximum of the first derivative of the curve using the Varian Cary Bio-100 software for duplex 2 and duplex 3.

Substance: Aba-Gly-Ala-Dab-Lys-Ala-Dab-Lys-lac-Dab-Lys-Ala-Dab-Lys-NH2 [compound 9]
- increase of depsipeptide lifetime by single-stranded RNA [1]: roughly fivefold
- RNA duplex 1 Tm ([2]; observed Tm with peptide/depsipeptide 100 µM, pH 7.0, 10 mM phosphate, RNA alone 43.8 ± 0.4, mean ± SD of 2-4 independent experiments): 54.2 ± 1.3 °C
- RNA duplex 1 ΔTm ([2]; peptide/depsipeptide 100 μM, RNA 2.5 μM each strand, 10 mM phosphate, pH 7.0, vs RNA alone at matched pH, mean of 2–4 replicates): 10.4 °C
